Measured values as given in ChEMBL document CHEMBL1201862, “PubChem BioAssay data set” (2004).
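A five-concentration, 48-hour dose response in 96-well plates underlies each endpoint, interpolated linearly between surrounding concentrations. The concentration for 50% growth inhibition is given as GI50.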 The source made the active and inactive calls. Rule as the data show it: active = GI50 up to about 1.1 µM and inactive = higher.

Tests used:
Experiment in all cases: DTP human tumour cell line panel, 48 h
DLD-1 = test system: DLD-1
DMS-114 = test system: DMS-114
DMS-273 = test system: DMS-273
HOP-18 = test system: HOP-18
LXFL 529 = test system: LXFL 529
M19-MEL = test system: M19-MEL
RXF 631 = test system: RXF 631
SNB-78 = test system: SNB-78
XF498 = test system: XF498

Row | SMILES | GI50 (DLD-1) | GI50 (DMS-114) | GI50 (DMS-273) | GI50 (HOP-18) | GI50 (LXFL 529) | GI50 (M19-MEL) | GI50 (RXF 631) | GI50 (SNB-78) | GI50 (XF498)
1 | O=C(/C=C1\Nc2ccccc2C(=O)N1c1ccccc1Cl)c1ccccc1 | > 100 µM (inactive) | 86.3 µM (inactive) | > 100 µM (inactive) | > 100 µM (inactive) | > 100 µM (inactive) | > 100 µM (inactive) | > 100 µM (inactive) | > 100 µM (inactive) | –
2 | CCNc1nc2c(=O)n(C)c(=O)n(C)c2s1 | > 100 µM (inactive) | – | – | > 100 µM (inactive) | > 100 µM (inactive) | > 100 µM (inactive) | – | > 100 µM (inactive) | > 100 µM (inactive)
3 | O=C(/C=C/c1ccc(OCCCOc2ccc(/C=C/C(=O)c3ccc(Cl)cc3)cc2)cc1)c1ccc(Cl)cc1 | > 100 µM (inactive) | > 100 µM (inactive) | > 100 µM (inactive) | 5.42 µM (inactive) | > 100 µM (inactive) | > 100 µM (inactive) | – | > 100 µM (inactive) | > 100 µM (inactive)
4 | CC1CCC2(OC1)OC1CC3C4CCC5CC(O)CCC5(C)C4CC(=O)OC3(C)C1C2C (stereo unspecified) | > 100 µM (inactive) | > 100 µM (inactive) | > 100 µM (inactive) | > 100 µM (inactive) | > 100 µM (inactive) | > 100 µM (inactive) | – | > 100 µM (inactive) | –
5 | CC1=CC(=O)N(c2c(C)cccc2Cl)C(C)N1 (stereo unspecified) | > 100 µM (inactive) | > 100 µM (inactive) | > 100 µM (inactive) | > 100 µM (inactive) | > 100 µM (inactive) | > 100 µM (inactive) | > 100 µM (inactive) | > 100 µM (inactive) | –
6 | C=C1C=CC2(Br)OC3CC(C)(Cl)C(Br)CC13C2(C)C (stereo unspecified) | 31.6 µM (inactive) | 17.2 µM (inactive) | 35.8 µM (inactive) | – | 22.5 µM (inactive) | 21.5 µM (inactive) | 23 µM (inactive) | 22.4 µM (inactive) | 13.3 µM (inactive)
7 | CCOC1c2cc(OC)c(OC)cc2-c2ccc3ccccc3c2N1C (stereo unspecified) | 25.5 µM (inactive) | 9.35 µM (inactive) | 6.46 µM (inactive) | 42.4 µM (inactive) | 5.96 µM (inactive) | 11.2 µM (inactive) | 22.9 µM (inactive) | 33.6 µM (inactive) | 14.8 µM (inactive)
8 | COc1cc(C(O)C(=O)c2nc3ccc([N+](=O)[O-])cc3nc2O)ccc1O (stereo unspecified) | > 100 µM (inactive) | 66.8 µM (inactive) | 83.9 µM (inactive) | – | 35.8 µM (inactive) | > 100 µM (inactive) | – | > 100 µM (inactive) | > 100 µM (inactive)
9 | Cc1ccc(C)c(NC(=O)/C(=N\NC(N)=S)C(C#N)c2ccccc2)c1 (stereo unspecified) | > 100 µM (inactive) | > 100 µM (inactive) | > 100 µM (inactive) | > 100 µM (inactive) | > 100 µM (inactive) | > 100 µM (inactive) | – | – | > 100 µM (inactive)
10 | O=C(c1ccccc1)C(c1ccccc1)C1(O)C(=O)Nc2ccc([N+](=O)[O-])cc21 (stereo unspecified) | > 100 µM (inactive) | 19.8 µM (inactive) | – | – | 32.9 µM (inactive) | 26.9 µM (inactive) | > 100 µM (inactive) | > 100 µM (inactive) | > 100 µM (inactive)
11 | COc1cccc(NC(=O)C(C)(C)C)c1C=O | 51.9 µM (inactive) | 34.6 µM (inactive) | – | 91 µM (inactive) | 33.7 µM (inactive) | 59.3 µM (inactive) | 81.3 µM (inactive) | 51.2 µM (inactive) | 7.38 µM (inactive)
12 | O=C(Nc1cc(Cl)c(Cl)cc1Cl)C(=O)C1C(=O)NC(=S)NC1=O | > 100 µM (inactive) | > 100 µM (inactive) | > 100 µM (inactive) | > 100 µM (inactive) | > 100 µM (inactive) | > 100 µM (inactive) | > 100 µM (inactive) | > 100 µM (inactive) | > 100 µM (inactive)
13 | CSC(=S)NNC(=O)c1ccncc1 | 13.5 µM (inactive) | 14.3 µM (inactive) | 21.7 µM (inactive) | 25.2 µM (inactive) | 15.7 µM (inactive) | 19.1 µM (inactive) | 30 µM (inactive) | 28.2 µM (inactive) | 21.9 µM (inactive)
14 | O=[N+]([O-])c1cc(C(F)(F)F)cc([N+](=O)[O-])c1CCl | 1.83 µM (inactive) | 0.52 µM (active) | 1.23 µM (inactive) | 1.93 µM (inactive) | 0.228 µM (active) | 1.57 µM (inactive) | 2.8 µM (inactive) | 4.69 µM (inactive) | 8.97 µM (inactive)
15 | C#CCNC(=O)NCCCCC(NC(=O)OCc1ccccc1)C(=O)OCc1ccccc1 (stereo unspecified) | 49 µM (inactive) | 27.7 µM (inactive) | > 71.3 µM (inactive) | > 100 µM (inactive) | 40.3 µM (inactive) | 38.7 µM (inactive) | > 58.5 µM (inactive) | > 80.9 µM (inactive) | 18.5 µM (inactive)
16 | O=C(CC(C(=O)c1ccsc1)c1cccs1)c1cccs1 (stereo unspecified) | > 100 µM (inactive) | 41.9 µM (inactive) | 84.5 µM (inactive) | – | 38.5 µM (inactive) | 96.2 µM (inactive) | – | > 100 µM (inactive) | 70.1 µM (inactive)
17 | COC(OC)C(C)CC(=O)N(C)C (stereo unspecified) | > 100 µM (inactive) | > 100 µM (inactive) | > 100 µM (inactive) | – | > 100 µM (inactive) | > 100 µM (inactive) | – | > 100 µM (inactive) | > 100 µM (inactive)
18 | COc1cccc(NC(=O)C(=O)C2C=CCS2(=O)=O)c1 (stereo unspecified) | > 100 µM (inactive) | > 100 µM (inactive) | – | > 100 µM (inactive) | > 100 µM (inactive) | > 100 µM (inactive) | – | – | > 100 µM (inactive)
19 | NC1=NC(=O)C(CC(=O)Nc2ccc(Cl)cc2Cl)S1 (stereo unspecified) | > 100 µM (inactive) | – | > 100 µM (inactive) | – | > 100 µM (inactive) | > 100 µM (inactive) | – | > 100 µM (inactive) | > 100 µM (inactive)
20 | CCOC(=O)C1C=C2O[C@@H]3OC4(CCCCC4)O[C@@H]3C2C2C(=O)CCC(=O)[C@@]12C(=O)OC (stereo partly specified) | > 100 µM (inactive) | > 100 µM (inactive) | > 100 µM (inactive) | > 100 µM (inactive) | > 100 µM (inactive) | > 100 µM (inactive) | > 100 µM (inactive) | > 100 µM (inactive) | > 100 µM (inactive)
21 | O=C1NC2(CCCCC2)C(=O)N1CCN(CCCl)CCCl [SPIROMUSTINE] | 164 µM (inactive) | 88.7 µM (inactive) | 71.6 µM (inactive) | 236 µM (inactive) | – | 228 µM (inactive) | – | 148 µM (inactive) | 28.8 µM (inactive)
